Experimental data from patent US20170050957A1, “4-AMINO-6-(HETEROCYCLIC)PICOLINATES AND 6-AMINO-2-(HETEROCYCLIC)PYRIMIDINE-4-CARBOXYLATES AND THEIR USE AS HERBICIDES” (Dow AgroSciences LLC, priority 2013, published 2017).
Where two headings read alike, the source gives them in different places.

How the values were obtained:
[1] = system: Key Broadleaf Weed and Crop Species; test: Post-emergent Test II herbicidal activity (Table 15); type: in vivo; conditions: post-emergence, 336 h, 14 d; for pest or weed control at 35 g/ha: 35 g ai/ha; for pest or weed control at 70 g/ha: 70 g ai/ha; for pest or weed control at 140 g/ha: 140 g ai/ha
Method in brief: (§1)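 Herbicidal effect scored as percent visual injury, 14 d after post-emergent application. Spray solutions contained acetone, DMSO, isopropyl alcohol, crop oil concentrate and surfactant, applied at 187 L/ha to young plants (1-2 true leaves).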

[2] = system: Key Grass and Sedge Weeds as well as Grass Crops; test: Post-emergent Test II herbicidal activity (Table 16); type: in vivo; conditions: post-emergence, 336 h, 14 d; for pest or weed control at 35 g/ha: 35 g ai/ha; for pest or weed control at 70 g/ha: 70 g ai/ha; for pest or weed control at 140 g/ha: 140 g ai/ha
Method in brief: as §1

[3] = Abutilon theophrasti, velvetleaf (Abutilon theophrasti), read-out: Visual Growth Reduction (%) 14 Days After Application, ABUTH
[4] = Amaranthus retroflexus, redroot pigweed (Amaranthus retroflexus), read-out: Visual Growth Reduction (%) 14 Days After Application, AMARE
[5] = Brassica napus, oilseed rape, canola (Brassica napus), read-out: Visual Growth Reduction (%) 14 Days After Application, BRSNN
[6] = Chenopodium album, lambsquarters (Chenopodium album), read-out: Visual Growth Reduction (%) 14 Days After Application, CHEAL
[7] = Euphorbia heterophylla, wild poinsettia (Euphorbia heterophylla), read-out: Visual Growth Reduction (%) 14 Days After Application, EPHHL
[8] = Helianthus annuus, sunflower (Helianthus annuus), read-out: Visual Growth Reduction (%) 14 Days After Application, HELAN
[9] = Cyperus esculentus, yellow nutsedge (Cyperus esculentus), read-out: Visual Growth Reduction (%) 14 Days After Application, CYPES
[10] = Echinochloa crus-galli, barnyardgrass (Echinochloa crus-galli), read-out: Visual Growth Reduction (%) 14 Days After Application, ECHCG
[11] = Oryza sativa, rice (Oryza sativa), read-out: Visual Growth Reduction (%) 14 Days After Application, ORYSA
[12] = Setaria faberi, giant foxtail (Setaria faberi), read-out: Visual Growth Reduction (%) 14 Days After Application, SETFA
[13] = Triticum aestivum, wheat, spring (Triticum aestivum), read-out: Visual Growth Reduction (%) 14 Days After Application, TRZAS
[14] = Zea mays, maize, corn (Zea mays), read-out: Visual Growth Reduction (%) 14 Days After Application, ZEAMX

Row | Structure (SMILES) | pest or weed control at 35 g/ha [1, 3] [%] | pest or weed control at 70 g/ha [1, 3] [%] | pest or weed control at 140 g/ha [1, 3] [%] | pest or weed control at 35 g/ha [1, 4] [%] | pest or weed control at 70 g/ha [1, 4] [%] | pest or weed control at 140 g/ha [1, 4] [%] | pest or weed control at 35 g/ha [1, 5] [%] | pest or weed control at 70 g/ha [1, 5] [%] | pest or weed control at 140 g/ha [1, 5] [%] | pest or weed control at 35 g/ha [1, 6] [%] | pest or weed control at 70 g/ha [1, 6] [%] | pest or weed control at 140 g/ha [1, 6] [%] | pest or weed control at 35 g/ha [1, 7] [%] | pest or weed control at 70 g/ha [1, 7] [%] | pest or weed control at 140 g/ha [1, 7] [%] | pest or weed control at 35 g/ha [1, 8] [%] | pest or weed control at 70 g/ha [1, 8] [%] | pest or weed control at 140 g/ha [1, 8] [%] | pest or weed control at 35 g/ha [2, 9] [%] | pest or weed control at 70 g/ha [2, 9] [%] | further results
1 | COC(=O)c1nc(-c2ccc3occc3c2)nc(N)c1OC [Compound 2.06] | 0 to 29 | 0 to 29 | 75 to 84 | 75 to 84 | 95 to 100 | 95 to 100 | 30 to 44 | 60 to 74 | 85 to 94 | 60 to 74 | 75 to 84 | 85 to 94 | 30 to 44 | 75 to 84 | 95 to 100 | 60 to 74 | 75 to 84 | 85 to 94 | 0 to 29 | 0 to 29 | pest or weed control at 140 g/ha [2, 9]: 0 to 29%; pest or weed control at 35 g/ha [2, 10]: 0 to 29%; pest or weed control at 70 g/ha [2, 10]: 45 to 59%; pest or weed control at 140 g/ha [2, 10]: 95 to 100%; pest or weed control at 35 g/ha [2, 11]: 0 to 29%; pest or weed control at 70 g/ha [2, 11]: 0 to 29%; pest or weed control at 140 g/ha [2, 11]: 0 to 29%; pest or weed control at 35 g/ha [2, 12]: 0 to 29%; pest or weed control at 70 g/ha [2, 12]: 0 to 29%; pest or weed control at 140 g/ha [2, 12]: 0 to 29%; pest or weed control at 35 g/ha [2, 13]: 0 to 29%; pest or weed control at 70 g/ha [2, 13]: 0 to 29%; pest or weed control at 140 g/ha [2, 13]: 0 to 29%; pest or weed control at 35 g/ha [2, 14]: 0 to 29%; pest or weed control at 70 g/ha [2, 14]: 0 to 29%; pest or weed control at 140 g/ha [2, 14]: 0 to 29%
2 | Nc1c(F)c(-c2ccc(Cl)c3occc23)nc(C(=O)O)c1Cl [Compound 2.18] | 0 to 29 | 0 to 29 | 0 to 29 | 95 to 100 | 95 to 100 | 95 to 100 | 45 to 59 | 60 to 74 | 60 to 74 | 85 to 94 | 85 to 94 | 85 to 94 | 0 to 29 | 0 to 29 | 0 to 29 | 75 to 84 | 75 to 84 | 85 to 94 | 0 to 29 | 0 to 29 | pest or weed control at 140 g/ha [2, 9]: 0 to 29%; pest or weed control at 35 g/ha [2, 10]: 0 to 29%; pest or weed control at 70 g/ha [2, 10]: 0 to 29%; pest or weed control at 140 g/ha [2, 10]: 0 to 29%; pest or weed control at 35 g/ha [2, 11]: 0 to 29%; pest or weed control at 70 g/ha [2, 11]: 0 to 29%; pest or weed control at 140 g/ha [2, 11]: 0 to 29%; pest or weed control at 35 g/ha [2, 12]: 0 to 29%; pest or weed control at 70 g/ha [2, 12]: 0 to 29%; pest or weed control at 140 g/ha [2, 12]: 0 to 29%; pest or weed control at 35 g/ha [2, 13]: 0 to 29%; pest or weed control at 70 g/ha [2, 13]: 0 to 29%; pest or weed control at 140 g/ha [2, 13]: 0 to 29%; pest or weed control at 35 g/ha [2, 14]: 0 to 29%; pest or weed control at 70 g/ha [2, 14]: 0 to 29%; pest or weed control at 140 g/ha [2, 14]: 0 to 29%
3 | COC(=O)c1nc(-c2ccc(Cl)c3occc23)nc(N)c1Cl [Compound 2.20] | 45 to 59 | 60 to 74 | 60 to 74 | 95 to 100 | 95 to 100 | 95 to 100 | 0 to 29 | 0 to 29 | 30 to 44 | 85 to 94 | 95 to 100 | 95 to 100 | 0 to 29 | 0 to 29 | 0 to 29 | 85 to 94 | 95 to 100 | 95 to 100 | 0 to 29 | 0 to 29 | pest or weed control at 140 g/ha [2, 9]: 0 to 29%; pest or weed control at 35 g/ha [2, 11]: 0 to 29%; pest or weed control at 70 g/ha [2, 11]: 0 to 29%; pest or weed control at 140 g/ha [2, 11]: 0 to 29%; pest or weed control at 35 g/ha [2, 12]: 0 to 29%; pest or weed control at 70 g/ha [2, 12]: 30 to 44%; pest or weed control at 140 g/ha [2, 12]: 60 to 74%; pest or weed control at 35 g/ha [2, 13]: 0 to 29%; pest or weed control at 70 g/ha [2, 13]: 0 to 29%; pest or weed control at 140 g/ha [2, 13]: 0 to 29%; pest or weed control at 35 g/ha [2, 14]: 0 to 29%; pest or weed control at 70 g/ha [2, 14]: 0 to 29%; pest or weed control at 140 g/ha [2, 14]: 0 to 29%
4 | COC(=O)c1nc(-c2ccc(Cl)c3occc23)nc(N)c1OC [Compound 2.21] | 30 to 44 | 60 to 74 | 60 to 74 | 95 to 100 | 95 to 100 | 95 to 100 | 30 to 44 | 30 to 44 | 45 to 59 | 85 to 94 | 85 to 94 | 95 to 100 | 0 to 29 | 0 to 29 | 0 to 29 | 60 to 74 | 75 to 84 | 75 to 84 | 0 to 29 | 0 to 29 | pest or weed control at 140 g/ha [2, 9]: 0 to 29%; pest or weed control at 35 g/ha [2, 11]: 0 to 29%; pest or weed control at 70 g/ha [2, 11]: 0 to 29%; pest or weed control at 140 g/ha [2, 11]: 0 to 29%; pest or weed control at 35 g/ha [2, 12]: 0 to 29%; pest or weed control at 70 g/ha [2, 12]: 0 to 29%; pest or weed control at 140 g/ha [2, 12]: 0 to 29%; pest or weed control at 35 g/ha [2, 13]: 0 to 29%; pest or weed control at 70 g/ha [2, 13]: 0 to 29%; pest or weed control at 140 g/ha [2, 13]: 0 to 29%; pest or weed control at 35 g/ha [2, 14]: 0 to 29%; pest or weed control at 70 g/ha [2, 14]: 0 to 29%; pest or weed control at 140 g/ha [2, 14]: 0 to 29%
